From US6703395B2, “Cyclin dependent kinase inhibitor” (priority 1998, dated 2004)

What was measured:
[1] = system: Human T-lymphoblastic leukemia cell line CEM; experiment: MTT in vitro cytotoxicity assay, CEM; format: cell-based; conditions: 72 hours incubation
Text: (§1) One of the parameters used as the basis for colorimetric assays is the metabolic activity of viable cells. For example, a microtiter assay which uses the tetrazolium salt 3-[4,5-Dimethylthiazol-2-yl]-2,5-diphenyltetrazolium bromide; Thiazolyl blue (hereinafter MTT) is now widely used to quantitate cell proliferation and cytotoxicity, for instance, in drug screening programs and in chemosensitivity testing. Because tetrazolium salts are cleaved only by metabolically active cells, these assays detect viable cells exclusively. In the case of the MTT-assay, yellow soluble tetrazolium salt is reduced to colored water-insoluble formazan salt. After it is solubilized, the formazan formed can easily and rapidly be quantified in a conventional ELISA plate reader at 570 nm (maximum absorbance). The quantity of reduced formazan corresponds to number of vital cells in the culture. […]
(§2) The cell suspensions that were prepared and diluted according to the particular cell type and the expected target cell density (2,500-30,000 cells per well based on cell growth characteristics) were added by pipet (80 μl) into 96 well microtiter plates. […] Usually, test compound were evaluated at six 4-fold dilutions. […] The optical density (OD) was measured at 540 nm with the Labsystem iEMS Reader MF (UK). […]

[2] = system: promyelocytic leukemia HL-60; experiment: MTT in vitro cytotoxicity assay, HL-60; format: cell-based, human
Text: as §1, §2

B16 melanoma [3] = experiment: MTT in vitro cytotoxicity assay, B16; format: cell-based, mouse
Text: as §1, §2

B16F10 melanoma = experiment: MTT in vitro cytotoxicity assay, B16F10; format: cell-based, mouse
Text: as §1, §2

[4] = system: human breast carcinoma cell line MCF-7; experiment: MTT in vitro cytotoxicity assay, MCF7; format: cell-based
Text: as §1, §2

[5] = system: cervical carcinoma cells HELA; experiment: MTT in vitro cytotoxicity assay, HELA; format: cell-based; conditions: 72 hours incubation
Text: as §1, §2

[6] = system: mouse immortalized bone marrow macrophages B10A.4; experiment: MTT in vitro cytotoxicity assay, B10#4; format: cell-based
Text: as §1, §2

[7] = system: mouse immortalized bone marrow macrophages B2.4; experiment: MTT in vitro cytotoxicity assay, B2#4; format: cell-based; conditions: 72 hours incubation
Text: as §1, §2

U937 = experiment: MTT in vitro cytotoxicity assay, U937; format: cell-based
Text: (§3) One of the parameters used as the basis for colorimetric assays is the metabolic activity of viable cells. For example, a microtiter assay which uses the tetrazolium salt 3-[4,5-Dimethylthiazol-2-yl]-2,5-diphenyltetrazolium bromide; Thiazolyl blue (hereinafter MTT) is now widely used to quantitate cell proliferation and cytotoxicity, for instance, in drug screening programs and in chemosensitivity testing. Because tetrazolium salts are cleaved only by metabolically active cells, these assays detect viable cells exclusively. In the case of the MTT-assay, yellow soluble tetrazolium salt is reduced to colored water-insoluble formazan salt. After it is solubilized, the formazan formed can easily and rapidly be quantified in a conventional ELISA plate reader at 570 nm (maximum absorbance). The quantity of reduced formazan corresponds to number of vital cells in the culture.
as §2, with “plates. Inoculates were allowed a preincubation period of 24 hours at 37° C. and 5% CO2 for stabilization.” for “plates.”

L1210 leukemia = experiment: MTT in vitro cytotoxicity assay, L1210; format: cell-based, mouse
Text: as §1, §2

P388D1 leukemia [8] = experiment: MTT in vitro cytotoxicity assay, P388D1; format: cell-based, mouse
Text: as §1, §2

mouse fibroblasts NIH3T3 = experiment: MTT in vitro cytotoxicity assay, NIH3T3; format: cell-based
Text: as §1, §2

normal human lymphocytes = experiment: MTT in vitro cytotoxicity assay, lymphocytes; format: cell-based; conditions: 72 hours incubation
Text: as §3
as §2, with “plates. Inoculates were allowed a preincubation period of 24 hours at 37° C. and 5% CO2 for stabilization.” for “plates.”

tumor cell lines = experiment: MTT in vitro cytotoxicity, panel of tumor cell lines; format: cell-based; conditions: summary of Table 1
Text: as §1, §2

P388D1 leukemia [9] = experiment: In vivo antitumor activity, intraperitoneally transplanted P388D1 leukemia; conditions: DBA-2 mice, 1 mg 4x daily for 7 days
B16 melanoma [10] = experiment: In vivo antitumor activity, subcutaneously inoculated B16 melanoma; conditions: C57BL-10 mice, 1 mg subcutaneously 4x daily for 7 days
[11] = mouse
Description: in vivo anti-cancer activity assays: water insoluble compounds: 50% DMSO, 10 mM HCl in saline.
Cells were trypsinized, washed in PBS and suspended in PBS with 0.5% bovine serum albumin. 0.5 miilion cells from this suspension was applied subcutaneously to C57BL-10 mice. […] The compounds (1 mg) were applied subcutaneously 4× daily, for 7 days.
Cells were scraped, washed in PBS and suspended in PBS with 0.5% bovine serum albumin. 0.5 million cells from this suspension was applied intraperitoneally to DBA-2 mice. […] The compounds (1 mg) were applied subcutaneously 4× daily, for 7 days.

CEM cells [12] = experiment: Apoptosis by phase contrast and electron microscopy; format: cell-based, human; conditions: 50 μm, 8 hours (FIG. 3)
CEM cells [13] = experiment: Apoptosis and cell cycle analysis by FACS (DNA content); format: cell-based, human; conditions: 50 μm (FIG. 4), method 70 μM, 3-24 hours
Description: Cells (1×10^6/ml) were cultured in 6-well plates with or without 70 μM concentration of test compound at 37° C. and 5% CO2 for 3-24 hours. Following incubation, cells were pelleted, washed in Hank's buffered salt solution and fixed in 96% ethanol overnight at −20° C. Low molecular weight apoptotic DNA was extracted in citrate buffer. RNA was cleaved using RNAse (50 mg/ml).

CC(C)=CCNc1ncnc2nc[nH]c12 [IP, isopentenyladenine]
IC50 [1]: 169 µM | IC50 ([2]; 72 hours incubation): 157 µM | IC50 (B16 melanoma [3]; 72 hours incubation): 267 µM | IC50 (B16F10 melanoma; 72 hours incubation): 267 µM | IC50 ([4]; 72 hours incubation): 267 µM | IC50 [5]: 267 µM | IC50 ([6]; 72 hours incubation): 267 µM | IC50 [7]: 267 µM | IC50 (U937; 72 hours incubation): 267 µM | IC50 (L1210 leukemia; 72 hours incubation): 267 µM | IC50 (P388D1 leukemia [8]; 72 hours incubation): 267 µM | IC50 (mouse fibroblasts NIH3T3; 72 hours incubation): 267 µM | IC50 (normal human lymphocytes): 267 µM | toxicity to tumor cells (in words) (tumor cell lines): did not show significant toxicity | in vivo activity, P388D1 leukemia model (survival) (P388D1 leukemia [9]): no activity | in vivo activity, B16 melanoma model (medium survival time) (B16 melanoma [10]): no activity | toxicity in vivo / tissue necrosis at the site of application [11]: no activity and toxicity

Cn1cnc2c(NCc3ccccc3)nc(NCCO)nc21 [OC, 2-(2-hydroxyethylamino)-6-benzylamino-9-methylpurine]
IC50 ([1]; Homo sapiens): 20.7 µM | IC50 ([2]; Homo sapiens, HL-60, 72 hours incubation): 28.9 µM | IC50 (B16 melanoma [3]; Mus musculus, B16, 72 hours incubation): 50.4 µM | IC50 (B16F10 melanoma; Mus musculus, B16-F10, 72 hours incubation): 20.6 µM | IC50 ([4]; Homo sapiens, MCF7, 72 hours incubation): 30.5 µM | IC50 ([5]; Homo sapiens, HeLa): 100 µM | IC50 ([6]; Mus musculus, B104, 72 hours incubation): 20.3 µM | IC50 ([7]; Mus musculus, Bone marrow macrophage): 8.1 µM | IC50 (U937; Homo sapiens, U-937, 72 hours incubation): 63.8 µM | IC50 (L1210 leukemia; Mus musculus, L1210, 72 hours incubation): 23.5 µM | IC50 (P388D1 leukemia [8]; Mus musculus, P388D1, 72 hours incubation): 14.5 µM | IC50 (mouse fibroblasts NIH3T3; Mus musculus, NIH3T3, 72 hours incubation): 267 µM | IC50 (normal human lymphocytes; Homo sapiens, Lymphocyte): 267 µM | toxicity to tumor cells (in words) (tumor cell lines): moderately effective | in vivo activity, P388D1 leukemia model (survival) (P388D1 leukemia [9]): significant in vivo activity | in vivo activity, B16 melanoma model (medium survival time) (B16 melanoma [10]): significant in vivo activity | apoptosis by phase contrast / electron microscopy (CEM cells [12]): apoptosis had occurred

CCC(CO)Nc1nc(NCc2ccccc2)c2ncn(C(C)C)c2n1 (stereo not drawn) [ROSC, 2-[(1-ethyl-2-hydroxyethyl)amino]-6-benzylamino-9-isopropylpurine]
apoptosis by phase contrast / electron microscopy (CEM cells [12]): apoptosis had occurred | apoptosis by flow cytometric analysis of DNA content (CEM cells [13]): Extensive apoptosis
